Tests used:
[1] = target: Sodium-dependent noradrenaline transporter (Homo sapiens, UniProt P23975); experiment: Inhibition of wild type human NET expressed in HEK293 cells assessed as inhibition of [3H]-MPP+ reuptake preincubated for 5 mins followed by [3H]MPP+ addition and measured after 3 mins by liquid scintillation counting analysis; assay type: cell-based
[2] = target: Sodium-dependent serotonin transporter (Homo sapiens, UniProt P31645); assay type: cell-based, HEK293
Description: Inhibition of wild type human SERT expressed in HEK293 cells assessed as inhibition of [3H]-5HT reuptake preincubated for 5 mins followed by [3H]5HT addition and measured after 1 min by liquid scintillation counting analysis

[3] = target: Sodium-dependent dopamine transporter (Homo sapiens, UniProt Q01959); experiment: Inhibition of wild type human dopamine transporter expressed in HEK293 cells assessed as inhibition of [3H]dopamine reuptake preincubated for 5 mins followed by [3H]dopamine addition and measured after 1 min by liquid scintillation analysis; assay type: cell-based
Chain of Sodium-dependent dopamine transporter (Q01959 whole entry): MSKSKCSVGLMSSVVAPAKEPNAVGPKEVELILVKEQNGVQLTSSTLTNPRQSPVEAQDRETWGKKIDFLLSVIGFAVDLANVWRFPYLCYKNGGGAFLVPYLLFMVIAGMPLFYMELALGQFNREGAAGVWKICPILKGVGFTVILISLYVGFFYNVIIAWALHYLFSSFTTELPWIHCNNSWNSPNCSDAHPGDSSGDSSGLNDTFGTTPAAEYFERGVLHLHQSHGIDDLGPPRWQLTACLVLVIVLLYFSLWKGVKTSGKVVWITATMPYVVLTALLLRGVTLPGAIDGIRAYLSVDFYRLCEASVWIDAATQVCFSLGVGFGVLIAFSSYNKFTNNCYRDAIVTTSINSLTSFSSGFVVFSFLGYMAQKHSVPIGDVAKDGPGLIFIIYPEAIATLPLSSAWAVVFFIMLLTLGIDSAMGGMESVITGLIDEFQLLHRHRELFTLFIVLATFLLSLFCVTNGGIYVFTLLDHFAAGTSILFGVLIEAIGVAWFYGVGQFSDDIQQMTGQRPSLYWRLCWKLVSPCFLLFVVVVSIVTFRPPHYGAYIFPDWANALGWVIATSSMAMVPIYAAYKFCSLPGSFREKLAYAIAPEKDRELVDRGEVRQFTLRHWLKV

Chain of Sodium-dependent serotonin transporter (P31645 whole entry): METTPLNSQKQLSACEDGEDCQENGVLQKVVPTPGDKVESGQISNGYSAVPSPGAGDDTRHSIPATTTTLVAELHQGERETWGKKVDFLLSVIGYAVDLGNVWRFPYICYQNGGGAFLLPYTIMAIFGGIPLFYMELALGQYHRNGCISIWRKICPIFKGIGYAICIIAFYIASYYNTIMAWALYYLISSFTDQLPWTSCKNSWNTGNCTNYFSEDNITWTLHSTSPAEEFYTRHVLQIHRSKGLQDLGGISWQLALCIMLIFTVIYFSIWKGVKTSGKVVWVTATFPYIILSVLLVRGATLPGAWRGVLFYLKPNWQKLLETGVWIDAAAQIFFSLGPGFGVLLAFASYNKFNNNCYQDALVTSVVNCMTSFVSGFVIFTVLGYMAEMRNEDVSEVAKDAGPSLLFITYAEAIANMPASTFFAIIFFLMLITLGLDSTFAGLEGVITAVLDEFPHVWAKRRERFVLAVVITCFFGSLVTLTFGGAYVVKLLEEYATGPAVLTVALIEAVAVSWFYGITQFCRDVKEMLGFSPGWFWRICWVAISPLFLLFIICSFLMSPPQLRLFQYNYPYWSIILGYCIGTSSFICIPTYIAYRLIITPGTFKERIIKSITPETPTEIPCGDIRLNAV
Chain of Sodium-dependent noradrenaline transporter (P23975 whole entry): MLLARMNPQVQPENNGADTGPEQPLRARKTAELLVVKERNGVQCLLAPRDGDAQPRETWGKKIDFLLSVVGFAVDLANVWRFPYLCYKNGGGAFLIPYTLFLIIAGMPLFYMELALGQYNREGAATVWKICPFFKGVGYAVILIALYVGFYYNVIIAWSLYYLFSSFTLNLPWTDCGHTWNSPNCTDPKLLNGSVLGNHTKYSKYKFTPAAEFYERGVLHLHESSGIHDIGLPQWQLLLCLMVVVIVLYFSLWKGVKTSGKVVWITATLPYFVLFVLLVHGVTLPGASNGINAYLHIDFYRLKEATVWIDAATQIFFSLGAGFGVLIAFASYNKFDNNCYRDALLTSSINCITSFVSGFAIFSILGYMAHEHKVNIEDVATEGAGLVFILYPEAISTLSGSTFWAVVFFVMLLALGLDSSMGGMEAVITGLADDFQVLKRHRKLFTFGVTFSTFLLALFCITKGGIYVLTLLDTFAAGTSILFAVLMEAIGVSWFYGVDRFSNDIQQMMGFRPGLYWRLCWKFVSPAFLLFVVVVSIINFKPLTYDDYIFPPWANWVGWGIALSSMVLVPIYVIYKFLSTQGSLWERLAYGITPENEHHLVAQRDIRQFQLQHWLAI

SMILES | IC50 ([1]; read-out: IC50) [µM] | IC50 ([2]; read-out: IC50) [µM] | IC50 ([3]; read-out: IC50) [µM] | IC50 ([2]; hek293) | IC50 ([1]; hek293) | IC50 ([3]; hek293)
[O-][S+](Cc1csc(C2CC2)n1)C(c1ccccc1)c1ccccc1 (centres undefined) | 687 | 436 | 4.1 | – | – | –
Cc1ccc(C(c2ccc(C)cc2)[S+]([O-])Cc2cncs2)cc1 (stereo in doubt; 34b) | – | – | 356 | Not Active | – | –
Cc1nc(C)c(C[S+]([O-])C(c2ccccc2)c2ccccc2)s1 (centres undefined) | – | – | 87.1 | Not Active | Not Active | –
[O-][S+](Cc1csc(C2CC2)n1)C(c1ccc(Cl)cc1)c1ccc(Cl)cc1 (centres undefined) | – | – | 14 | Not Active | Not Active | –
[O-][S@@+](Cc1cncs1)[C@H](c1ccccc1)c1ccc(Cl)cc1 | 38.6 | – | 3.6 | Not Active | – | –
CC(C)c1nc(C[S+]([O-])C(c2ccccc2)c2ccccc2)cs1 (centres undefined) | – | – | 24.3 | Not Active | Not Active | –
[O-][S@+](Cc1cncs1)C(c1ccc(Cl)cc1)c1ccc(Cl)cc1 | – | – | 37.8 | Not Active | Not Active | –
Cc1ccc(C(c2ccc(C)cc2)[S+]([O-])Cc2cncs2)cc1 (racemic) | 215 | – | 10.6 | – | – | –
[O-][S+](Cc1cncs1)C(c1ccc(Cl)cc1)c1ccc(Cl)cc1 (racemic) | 45.5 | 221 | 4.17 | – | – | –
[O-][S@+](Cc1cncs1)[C@@H](c1ccccc1)c1ccc(C(F)(F)F)cc1 | – | – | – | Not Active | Not Active | Not Active
COc1ncc(C[S+]([O-])C(c2ccccc2)c2ccccc2)s1 (centres undefined) | 139 | – | 72.5 | Not Active | – | –
[O-][S+](Cc1csc(-c2cccs2)n1)C(c1ccccc1)c1ccccc1 (racemic) | 111 | – | 6.97 | Not Active | – | –
[O-][S@@+](Cc1cncs1)[C@@H](c1ccccc1)c1ccc(C(F)(F)F)cc1 | – | – | 39.5 | Not Active | Not Active | –
Cc1ccc(C(c2ccc(C)cc2)[S+]([O-])Cc2cncs2)cc1 (stereo in doubt; 34a) | – | 264 | 6.8 | – | Not Active | –
[O-][S@@+](Cc1cncs1)[C@H](c1ccccc1)c1ccc(C(F)(F)F)cc1 | – | – | 37.7 | Not Active | Not Active | –
Cc1nc(CSC(c2ccccc2)c2ccccc2)cs1 | 130 | – | 91.4 | Not Active | – | –
Cc1nc(C[S+]([O-])C(c2ccccc2)c2ccccc2)c(C)s1 (centres undefined) | – | – | 48.1 | Not Active | Not Active | –
CC(C)(C)c1ncc(C[S+]([O-])C(c2ccccc2)c2ccccc2)s1 (centres undefined) | – | – | 59.7 | Not Active | Not Active | –
[O-][S+](Cc1cscn1)C(c1ccc(Cl)cc1)c1ccc(Cl)cc1 (centres undefined) | 107 | – | 5.04 | Not Active | – | –
Cc1ncsc1C[S+]([O-])C(c1ccccc1)c1ccccc1 (centres undefined) | – | – | 44.1 | Not Active | Not Active | –
[O-][S+](Cc1nccs1)C(c1ccc(Cl)cc1)c1ccc(Cl)cc1 (centres undefined) | – | – | 9.58 | Not Active | Not Active | –
COc1ccc(C(c2ccc(OC)cc2)[S+]([O-])Cc2csc(C3CC3)n2)cc1 (centres undefined) | – | – | 105 | Not Active | Not Active | –
[O-][S+](Cc1cscn1)C(c1ccccc1)c1ccc(Br)cc1 (racemic) | 109 | – | 1.85 | Not Active | – | –
[O-][S+](Cc1cnc(Cl)s1)C(c1ccccc1)c1ccccc1 (centres undefined) | 108 | – | 24.3 | Not Active | – | –
[O-][S+](Cc1csc(Cl)n1)C(c1ccccc1)c1ccccc1 (racemic) | – | – | 3.02 | Not Active | Not Active | –
[O-][S+](Cc1cnc(C23CC4CC(CC(C4)C2)C3)s1)C(c1ccccc1)c1ccccc1 (centres undefined) | – | – | – | Not Active | – | –

Source: ChEMBL document CHEMBL4376858, “Structure-Activity Relationships of Novel Thiazole-Based Modafinil Analogues Acting at Monoamine Transporters” (J Med Chem, 2020)
